Test results: US11661404B2, “Prodrug compounds activated by AKR1C3 and their use for treating hyperproliferative disorders” (priority 2018, dated 2023)
Like-named read-outs stand apart in the source and are kept apart here.

Assays:
[1] = tested on: HCT116 colon cancer cells engineered to over-express AKR1C3; test: Anti-proliferative IC50 assay (SRB), HCT116 over-expressing AKR1C3; assay type: cell-based, human; conditions: for IC50 Ratio WT:AKR1C3: HCT116-WT vs HCT116-AKR1C3
Source text: (§1) The cellular cytotoxicity of compounds of the invention resulting from AKR1C3-dependent metabolism of the compounds can readily be observed in anti-proliferative IC50 testing in isogenic cell lines that have been engineered to over-express human AKR1C3, relative to their wild-type counterparts that have been selected for their comparatively low levels of endogenous AKR1C3 expression (by Western blot analysis). The direct role of AKR1C3 in metabolism and cytotoxicity of the compounds is further supported for selected examples by repeat anti-proliferative experiments in the presence of a potent and selective small molecule inhibitor of AKR1C3, SN34037 (Flanagan et al., Bioorganic & Medicinal Chemistry (2014), 22(3), 967-977).
(§2) Four hundred cells were seeded in a volume of 100 μL in each well of a 96-well plate. The cells were left in a humidified incubator (37° C., 5% CO2) for 2 hours in order to enable attachment to the surface of the wells prior to compound addition. All compounds were prepared as stocks in DMSO and stored at −80° C. Frozen stocks of compounds were thawed immediately prior to addition to cells. Working solutions of each compound were made in α-MEM+5% FBS (v/v) at 3 times the required final concentration for the top well. The final concentration of DMSO in the α-MEM solution was ensured to not exceed 1% of the total volume. 50 μL of the working solution was added to the top wells (in duplicates) and gently mixed. The solubility of some compounds precluded the working solution in α-MEM to be 3 times the desired top well concentration. […] A 3-fold serial dilution was carried out along the plate starting from the top well. The first column of wells on the plate served as blanks (containing α-MEM+FBS) and the second column served as control wells (containing cells with no compound added). Following compound addition, the plates were incubated for 4 hours in a humidified incubator (37° C., 5% CO2).
(§3) Following the 4 hour compound exposure, the 96-well plates were washed three times by aspirating media with an Immuno Washer (Nunc) and each well replaced with 150 μL of α-MEM+5% (v/v) FBS+1% (v/v) P/S. The plates were left in a humidified incubator (37° C., 5% CO2) for 5 days to enable cell growth. The cells in 96-well plates were fixed 5 days after compound exposure by adding 50 μL of a 40% (w/v) trichloroacetic acid (TCA) solution so as to obtain a final TCA concentration of 10% in each well. The plates were left in the refrigerator (4° C.) for 1 hour and subsequently rinsed 3 times in tap water. Any excess water was left to drain and the cells were stained with 50 μL of 0.4% (w/v) sulforhodamine B (SRB). The plates with the SRB stain were left in the dark for 30 minutes. Excess stain was removed from the wells by rinsing the plates 4 times in water containing 1% (v/v) acetic acid. The stain was solubilised by adding 100 μL of 10 mM unbuffered Tris (pH 10.5) to each well and the plates were left in a shaker in a dark environment at room temperature for at least 1 hour. The absorbance values of the wells were determined by an ELx 808 Absorbance Microplate Reader (Bio-Tek Instruments, Winooski, Vt., USA), with the wavelength of the measurement filter set at 490 nm and a reference filter set at 450 nm. The absorbance of the reference filter was subtracted from the measurement filter to obtain a final absorbance of λ490-450 nm. The absorbance data was analysed and IC50 values determined by the KC4 microplate data analysis software (KC4™ V3.4, Bio-Tek).
(§4) Anti-proliferative IC50 assays were repeated as described above including the addition of 3 μM SN34037, a selective and potent small molecule inhibitor of AKR1C3.

[2] = tested on: SNU398 hepatocellular carcinoma cells engineered to over-express AKR1C3; test: Anti-proliferative IC50 assay, SNU398 over-expressing AKR1C3; assay type: cell-based, human
Procedure: as §2, §3, §4
(§5) Materials and methods used are as described for Example 9. […] This is a surprising finding and considerably greater than the approximately 77-fold, 270-fold and 400-fold increase in sensitivity observed for PR-104A, SN33540 and SN34454, respectively. In all cases, this increase in cytotoxicity resulting from expression of AKR1C3 can be substantially reversed by addition of an AKR1C3 inhibitor (SN34037), directly implicating metabolism of the prodrugs by AKR1C3 in the observed increase in cytotoxicity. As an important control, introduction of SN34037 had no anti-proliferative effects in wild-type SNU398 cells treated with compounds of the invention.

[3] = tested on: wild-type SNU398 hepatocellular carcinoma cells; test: Anti-proliferative IC50 assay, wild-type SNU398; assay type: cell-based
Procedure: as §2, §3, §4, §5

[4] = tested on: wild-type HCT116 colon cancer cells; test: Anti-proliferative IC50 assay (SRB), wild-type HCT116; assay type: cell-based, human
Source text: as §1, §2, §3, §4

[5] = tested on: wild-type H460 lung cancer cells; test: Anti-proliferative IC50 assay, wild-type H460; assay type: cell-based, human
Procedure: as §2, §3, §4
Materials and methods used are as described for Example 9.

recombinant human AKR1C3 = molecular target: T1, recombinant human AKR1C3 (Homo sapiens, UniProt P42330); test: Kinetics assay: metabolism of prodrugs by recombinant human AKR1C3; assay type: biochemical; conditions: NADPH, pH 7.4, 37° C.
T1 construct: His6 (hexahistidine) (C); made in house; host or cells: E. coli BL21(DE3)
T1 sequence (P42330 1-323): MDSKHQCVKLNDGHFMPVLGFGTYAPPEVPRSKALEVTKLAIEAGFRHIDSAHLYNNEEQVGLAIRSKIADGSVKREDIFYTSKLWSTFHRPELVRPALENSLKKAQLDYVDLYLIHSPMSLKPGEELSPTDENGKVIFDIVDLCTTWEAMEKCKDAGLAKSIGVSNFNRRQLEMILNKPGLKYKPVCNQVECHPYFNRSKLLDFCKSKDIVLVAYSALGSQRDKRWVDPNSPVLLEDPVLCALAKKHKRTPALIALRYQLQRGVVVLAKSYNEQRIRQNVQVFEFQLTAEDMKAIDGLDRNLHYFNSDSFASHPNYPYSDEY
Procedure: E. coli BL21(DE3) cells expressing the pET22b-AKR1C3 construct with a C-terminal hexahistidine (His6) tag and constitutive promoter was generated. Colonies of these transformed E. coli cells were grown in LB agar medium containing 100 μg/mL of ampicillin. A single colony was picked the following day and grown in 400 mL batches of bacterial medium containing ampicillin (100 μg/mL) at 37° C., with continuous shaking at 200 rpm overnight. Bacterial cultures were pelleted by centrifugation (4000×g, 15 minutes) and resuspended in lysis buffer (10 mL/400 mL culture). The cells were disrupted by sonication (Sonicator 3000, Misonix) and centrifuged at 14,000 rpm for 30 minutes (at 4° C.). The cleared lysate was filtered in successive filters containing pore sizes of 1.20 μm, 0.8 μm and 0.2 μm and loaded onto a nickel-agarose affinity chromatography column on an ÄKTA Purifier system. The column was washed with 20 mL of the lysis buffer and the His6-tagged AKR1C3 protein was eluted with lysis buffer supplemented with 500 mM imidazole. The protein was further purified by a liquid chromatography gel filtration column (Superdex 200 HR16/60) using lysis buffer (supplemented with 5% v/v glycerol) and 1 mM DTT (pH 7.0) at a flow rate of 0.3 mL/min. Protein was monitored by absorbance at 280 nm, and purity of the fractions (1 mL) was assessed by SDS-PAGE. Active fractions containing the purified protein were pooled and concentrated by centrifugation (3,000×g, 4° C.) on a Vivaspin concentrator (MWCO 10,000 cutoff; GE Healthcare). The protein containing solution was supplemented with glycerol (to a final concentration of 15%, v/v) and NADP^+ was added to a final concentration of 2 mM.
Kinetic parameters of compounds of the invention were determined in a 96-well plate format. The 100 mM potassium phosphate buffer used in this assay was made with the following reagents to a pH of 7.4: • 0.5 M K2HPO4— 8.2 mL • 0.5 M KH2PO4— 1.8 mL • BSApowder—25 mg • Milli Q water—40 mL
For the assay, 2 μL of varying substrate concentrations were incubated with 94 μL of the potassium phosphate buffer and 2 μL of 5 mM NADPH for 5 minutes in the pre-warmed (37° C.) plate chamber of a Molecular Devices SpectraMax M2 plate reader. Purified AKR1C3 enzyme (2 μL) was added to a final concentration of […] in each well using an Eppendorf electronic multi-channel pipette. Absorbance measurements were recorded immediately upon addition of enzyme over a period of 5 minutes at a wavelength of 400 nm. Absorbance changes for each compound concentration were plotted against time to obtain the rate of absorbance change over the 5 minute period. The rate of absorbance change was then plotted against the compound concentration and non-linear regression analysis and Michaelis-Menten curve fitting performed on GraphPadPrism (version 5.00 for Windows, GraphPad Software, San Diego Calif. USA) in order to determine kinetic parameters of compounds.

[6] = Homo sapiens, HCT-116, 4 hour exposure, 5 days growth, read-out: HCT116-AKR1C3 IC50
[7] = with 3 μM SN34037, read-out: HCT116-AKR1C3 + AKR1C3 Inhibitor IC50
[8] = Homo sapiens, SNU-398; read-out: SNU398-AKR1C3 Anti-proliferative IC50
[9] = Homo sapiens, SNU-398; with 3 μM SN34037; read-out: SNU398-AKR1C3 +AKR1C3 Inhibitor Anti-proliferative IC50
[10] = Homo sapiens, SNU-398; read-out: SNU398-WT Anti-proliferative IC50
[11] = Homo sapiens, SNU-398; with 3 μM SN34037; read-out: SNU398-WT +AKR1C3 Inhibitor Anti-proliferative IC50
[12] = Homo sapiens, HCT-116, 4 hour exposure, 5 days growth, read-out: HCT116-WT IC50
[13] = with 3 μM SN34037, read-out: HCT116-WT + AKR1C3 Inhibitor IC50
[14] = Homo sapiens, NCI-H460; read-out: H460-WT Anti-proliferative IC50
[15] = Homo sapiens, NCI-H460; with 3 μM SN34037; read-out: H460-WT +AKR1C3 Inhibitor Anti-proliferative IC50
[16] = Homo sapiens, HCT-116, read-out: HCT116-AKR1C3 IC50
[17] = Homo sapiens, HCT-116, read-out: HCT116-WT IC50

SMILES	IC50 Ratio WT:AKR1C3 [1]	IC50 [1, 6]	IC50 [1, 7]	IC50 [2, 8]	IC50 [2, 9]	IC50 [3, 10]	IC50 [3, 11]	IC50 [4, 12]	IC50 [4, 13]	IC50 [5, 14]	IC50 [5, 15]	IC50 [1, 16]	Km (recombinant human AKR1C3)	kcat (recombinant human AKR1C3)	IC50 [4, 17]	further results
CS(=O)(=O)OCCN(CCOS(C)(=O)=O)c1ccc([N+](=O)[O-])cc1S(=O)(=O)N1CCNCC1 [Compound 640, ((4-nitro-2-(piperazin-1-ylsulfonyl)phenyl)azanediyl)bis(ethane-2,1-diyl) dimethanesulfonate]	469	0.009 µM	2.06 µM	0.026 µM	6.54 µM	8.47 µM	8.49 µM	4.22 µM	4.1 µM	0.027 µM	5.88 µM					
O=C(c1cc([N+](=O)[O-])cc([N+](=O)[O-])c1N(CCBr)CCBr)N1CCc2ccccc2C1 [SN34947, reference compound]	28											2.41 µM	7.8 µM	23.8 s⁻¹	66.8 µM	
CCN1CCN(S(=O)(=O)c2cc([N+](=O)[O-])ccc2N(CCOS(C)(=O)=O)CCOS(C)(=O)=O)CC1 [Compound 642, ((2-((4-ethylpiperazin-1-yl)sulfonyl)-4-nitrophenyl)azanediyl)bis(ethane-2,1-diyl) dimethanesulfonate]	1930											0.001 µM			1.93 µM	IC50 ([1]; read-out: HCT116-AKR1C3 + AKR1C3 Inhibitor IC50, with 3 μM SN34037): 0.828 µM; IC50 ([2]; Homo sapiens, SNU-398, read-out: SNU398-AKR1C3 +AKR1C3 Inhibitor Anti-proliferative IC50): 1.28 µM; IC50 ([2]; Homo sapiens, SNU-398, read-out: SNU398-AKR1C3 Anti-proliferative IC50): 0.002 µM; IC50 ([3]; Homo sapiens, SNU-398, read-out: SNU398-WT +AKR1C3 Inhibitor Anti-proliferative IC50): 12.1 µM; IC50 ([3]; Homo sapiens, SNU-398, read-out: SNU398-WT Anti-proliferative IC50): 10.3 µM; IC50 ([4]; read-out: HCT116-WT + AKR1C3 Inhibitor IC50, with 3 μM SN34037): 2.37 µM; IC50 ([5]; Homo sapiens, NCI-H460, read-out: H460-WT +AKR1C3 Inhibitor Anti-proliferative IC50): 2.24 µM; IC50 ([5]; Homo sapiens, NCI-H460, read-out: H460-WT Anti-proliferative IC50): 0.001 µM
CS(=O)(=O)OCCN(CCBr)c1c(C(=O)N2CCN(c3ccccc3)CC2)cc([N+](=O)[O-])cc1[N+](=O)[O-] [SN35028, reference compound]	>36											4.15 µM	7.3 µM	29.1 s⁻¹	> 150 µM	
CS(=O)(=O)OCCN(CCOS(C)(=O)=O)c1ccc([N+](=O)[O-])cc1S(=O)(=O)N1CCN(CC(O)CO)CC1 (stereo not shown) [Compound 644, ((2-((4-(2,3-dihydroxypropyl)piperazin-1-yl)sulfonyl)-4-nitrophenyl)azanediyl)bis(ethane-2,1-diyl) dimethanesulfonate]	978	0.109 µM	47 µM	0.262 µM	63.7 µM	73.8 µM	68.4 µM	107 µM	112 µM	0.387 µM	88.3 µM					
